# Legend:
# [1] = tested on: Phospho-Rb (Ser807/811) in MCF7 cells; assay: Phospho-Rb expression inhibition in MCF7 cells quantified by in cell Western; format: cell-based, human; settings: Homo sapiens, MCF7, 24 h, 24 hours, in cell Western, read-out: MCF7 pRb IC50
# How it was run: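 MCF7 cells were seeded at 20,000/well, grown overnight, then treated 24 h at 37 °C with compound dilutions (0.1% DMSO from 1000× stocks). Fixed cells were co-stained for phospho-Rb Ser807/811 and total Rb. Near-infrared dual-channel in-cell Western imaging was the read-out.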
# 22RV1 cells = assay: Cell growth inhibition of 22RV1 cells (CellTiter-Glo); format: cell-based; settings: Homo sapiens, 22Rv1, 120 h, 5 days, CellTiter-Glo, read-out: 22RV1 Cell Growh GI50
# How it was run: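 22RV1 cells were plated in RPMI1640 with FBS (20% in one version, 10% in the other) and dosed next day at various concentrations from DMSO stocks. After 5 days at 37 °C, viability was measured by CellTiter-Glo luminescence.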
Structure (SMILES),IC50 [1],GI50 (22RV1 cells)
"CC(C)n1c(C(C)(C)N2CCOCC2)nc2c(F)cc(-c3nc(N[C@@H]4C[C@H]5CO[C@H](O5)[C@H]4O)ncc3Cl)cc21 [Compound 219, (1S,3R,4S,5R)-3-((5-chloro-4-(4-fluoro-1-isopropyl-2-(2-morpholinopropan-2-yl)-1H-benzo[d]imidazol-6-yl)pyrimidin-2-yl)amino)-6,8-dioxabicyclo[3.2.1]octan-4-ol]",40 to 150 nM,120 to 450 nM
"CC(C)n1c(C(C)(C)O)nc2c(F)cc(-c3nc(N[C@@H]4C[C@H]5CO[C@H](O5)[C@H]4O)ncc3C(F)F)cc21 [Compound 29, (1S,3R,4S,5R)-3-((5-(difluoromethyl)-4-(4-fluoro-2-(2-hydroxypropan-2-yl)-1-isopropyl-1H-benzo[d]imidazol-6-yl)pyrimidin-2-yl)amino)-6,8-dioxabicyclo[3.2.1]octan-4-ol]",150 to 1000 nM,450 to 3000 nM
"O[C@@H]1[C@@H]2OC[C@H](C[C@H]1Nc1ncc(Cl)c(-c3cc(F)c4ncc(CN5CCOCC5)cc4c3)n1)O2 [Compound 261, (1S,3R,4S,5R)-3-((5-chloro-4-(8-fluoro-3-(morpholinomethyl)quinolin-6-yl)pyrimidin-2-yl)amino)-6,8-dioxabicyclo[3.2.1]octan-4-ol]",150 to 1000 nM,450 to 3000 nM
"CC(C)(O)c1nc2c(F)cc(-c3nc(N[C@@H]4C[C@H]5CO[C@H](O5)[C@H]4O)ncc3Cl)cc2n1C12CC(C1)C2 [Compound 181, (1S,3R,4S,5R)-3-((4-(1-(bicyclo[1.1.1]pentan-1-yl)-4-fluoro-2-(2-hydroxypropan-2-yl)-1H-benzo[d]imidazol-6-yl)-5-chloropyrimidin-2-yl)amino)-6,8-dioxabicyclo[3.2.1]octan-4-ol]",150 to 1000 nM,120 to 450 nM
"CC(C)n1c(-c2cnn(C)c2)nc2c(F)cc(-c3nc(N[C@@H]4C[C@H]5CO[C@H](O5)[C@H]4O)ncc3Cl)cc21 [Compound 187, (1S,3R,4S,5R)-3-((5-chloro-4-(4-fluoro-1-isopropyl-2-(1-methyl-1H-pyrazol-4-yl)-1H-benzo[d]imidazol-6-yl)pyrimidin-2-yl)amino)-6,8-dioxabicyclo[3.2.1]octan-4-ol]",150 to 1000 nM,120 to 450 nM
"CC(C)n1c(C(C)(C)O)nc2c(F)cc(-c3nc(N[C@@H]4C[C@H]5OC[C@H](O5)[C@H]4O)ncc3Cl)cc21 [Compound 72, (1S,2S,3R,5S)-3-((5-chloro-4-(4-fluoro-2-(2-hydroxypropan-2-yl)-1-isopropyl-1H-benzo[d]imidazol-6-yl)pyrimidin-2-yl)amino)-6,8-dioxabicyclo[3.2.1]octan-2-ol]",40 to 150 nM,120 to 450 nM
"CC(C)n1c(N2CCOC2=O)nc2c(F)cc(-c3nc(N[C@@H]4C[C@H]5CO[C@H](O5)[C@H]4O)ncc3Cl)cc21 [Compound 272, 3-(6-(5-chloro-2-(((1S,3R,4S,5R)-4-hydroxy-6,8-dioxabicyclo[3.2.1]octan-3-yl)amino)pyrimidin-4-yl)-4-fluoro-1-isopropyl-1H-benzo[d]imidazol-2-yl)oxazolidin-2-one]",40 to 150 nM,450 to 3000 nM
"CC(C)c1cn(C)c(=O)c2c(F)cc(-c3nc(N[C@@H]4C[C@H]5CO[C@H](O5)[C@H]4O)ncc3Cl)cc12 [Compound 188, 6-(5-chloro-2-(((1S,3R,4S,5R)-4-hydroxy-6,8-dioxabicyclo[3.2.1]octan-3-yl)amino)pyrimidin-4-yl)-8-fluoro-4-isopropyl-2-methylisoquinolin-1(2H)-one]",150 to 1000 nM,120 to 450 nM
"CC(C)n1c(C2(C(F)F)CC2)nc2c(F)cc(-c3nc(N[C@@H]4C[C@H]5CO[C@H](O5)[C@H]4O)ncc3Cl)cc21 [Compound 168, (1S,3R,4S,5R)-3-((5-chloro-4-(2-(1-(difluoromethyl)cyclopropyl)-4-fluoro-1-isopropyl-1H-benzo[d]imidazol-6-yl)pyrimidin-2-yl)amino)-6,8-dioxabicyclo[3.2.1]octan-4-ol]",40 to 150 nM,≤ 120 nM
"Cc1c(-c2nc(N[C@@H]3C[C@H]4CO[C@H](O4)[C@H]3O)ncc2Cl)sc2cc(C(C)(C)O)cnc12 [Compound 260, (1S,3R,4S,5R)-3-((5-chloro-4-(6-(2-hydroxypropan-2-yl)-3-methylthieno[3,2-b]pyridin-2-yl)pyrimidin-2-yl)amino)-6,8-dioxabicyclo[3.2.1]octan-4-ol]",40 to 150 nM,120 to 450 nM
"CC(C)n1c(C2CC(F)C2)nc2c(F)cc(-c3nc(N[C@@H]4C[C@H]5CO[C@H](O5)[C@H]4O)ncc3Cl)cc21 (stereo partly drawn) [Compound 242, (1S,3R,4S,5R)-3-((5-chloro-4-(4-fluoro-2-((1s,3S)-3-fluorocyclobutyl)-1-isopropyl-1H-benzo[d]imidazol-6-yl)pyrimidin-2-yl)amino)-6,8-dioxabicyclo[3.2.1]octan-4-ol]",≤ 40 nM,120 to 450 nM
"COC(=O)N1CC[C@@H](c2nc3c(F)cc(-c4nc(N[C@@H]5[C@H](C)[C@H]6CO[C@H](O6)[C@H]5O)ncc4Cl)cc3n2C(C)C)C1 [Compound 23, methyl (R)-3-(6-(5-chloro-2-(((1S,2S,3R,4S,5R)-4-hydroxy-2-methyl-6,8-dioxabicyclo[3.2.1]octan-3-yl)amino)pyrimidin-4-yl)-4-fluoro-1-isopropyl-1H-benzo[d]imidazol-2-yl)pyrrolidine-1-carboxylate]",40 to 150 nM,120 to 450 nM
"Cc1c(-c2nc(N[C@@H]3C[C@H]4CO[C@H](O4)[C@H]3O)ncc2F)sc2c(C(C)C)cn(C)c(=O)c12 [Compound 189, 2-(5-fluoro-2-(((1S,3R,4S,5R)-4-hydroxy-6,8-dioxabicyclo[3.2.1]octan-3-yl)amino)pyrimidin-4-yl)-7-isopropyl-3,5-dimethylthieno[3,2-c]pyridin-4(5H)-one]",≤ 40 nM,≤ 120 nM
"CC(C)n1c(C(C)(C)O)nc2c(F)cc(-c3nc(N[C@@H]4[C@H](C)[C@H]5CO[C@H](O5)[C@H]4O)ncc3Cl)cc21 [Compound 13, (1S,2S,3R,4S,5R)-3-((5-chloro-4-(4-fluoro-2-(2-hydroxypropan-2-yl)-1-isopropyl-1H-benzo[d]imidazol-6-yl)pyrimidin-2-yl)amino)-2-methyl-6,8-dioxabicyclo[3.2.1]octan-4-ol]",40 to 150 nM,120 to 450 nM
"CC(C)(O)C1=Nc2c(F)cc(-c3nc(N[C@@H]4C[C@H]5CO[C@H](O5)[C@H]4O)ncc3Cl)cc2C12CCCC2 [Compound 33, (1S,3R,4S,5R)-3-((5-chloro-4-(7′-fluoro-2′-(2-hydroxypropan-2-yl)spiro[cyclopentane-1,3′-indol]-5′-yl)pyrimidin-2-yl)amino)-6,8-dioxabicyclo[3.2.1]octan-4-ol]",40 to 150 nM,120 to 450 nM
"CC(C)n1c(N2CC[C@@H](F)C2)nc2c(F)cc(-c3nc(N[C@@H]4C[C@H]5CO[C@H](O5)[C@H]4O)ncc3Cl)cc21 [Compound 151, (1S,3R,4S,5R)-3-((5-chloro-4-(4-fluoro-2-((R)-3-fluoropyrrolidin-1-yl)-1-isopropyl-1H-benzo[d]imidazol-6-yl)pyrimidin-2-yl)amino)-6,8-dioxabicyclo[3.2.1]octan-4-ol]",40 to 150 nM,120 to 450 nM
"CC(C)(O)c1cnc2c(Cl)cc(-c3nc(N[C@@H]4C[C@H]5CO[C@H](O5)[C@H]4O)ncc3Cl)cc2c1Cl [Compound 286, (1S,3R,4S,5R)-3-((5-chloro-4-(4,8-dichloro-3-(2-hydroxypropan-2-yl)quinolin-6-yl)pyrimidin-2-yl)amino)-6,8-dioxabicyclo[3.2.1]octan-4-ol]",≤ 40 nM,≤ 120 nM
"Cc1c(C(C)(C)O)nnc2c(F)cc(-c3nc(N[C@@H]4C[C@H]5CO[C@H](O5)[C@H]4O)ncc3F)cc12 [Compound 280, (1S,3R,4S,5R)-3-((5-fluoro-4-(8-fluoro-3-(2-hydroxypropan-2-yl)-4-methylcinnolin-6-yl)pyrimidin-2-yl)amino)-6,8-dioxabicyclo[3.2.1]octan-4-ol]",150 to 1000 nM,≤ 120 nM
"Cc1c(CN2CCOC2=O)n(C(C)C)c2cc(-c3nc(N[C@@H]4C[C@H]5CO[C@H](O5)[C@H]4O)ncc3F)ccc2c1=O [Compound 211, 3-((7-(5-fluoro-2-(((1S,3R,4S,5R)-4-hydroxy-6,8-dioxabicyclo[3.2.1]octan-3-yl)amino)pyrimidin-4-yl)-1-isopropyl-3-methyl-4-oxo-1,4-dihydroquinolin-2-yl)methyl)oxazolidin-2-one]",> 1000 nM,> 3000 nM
"Cc1c(-c2nc(N[C@@H]3C[C@H]4CO[C@H](O4)[C@H]3O)ncc2F)sc2cc(CN3CCOCC3)n(C)c(=O)c12 [Compound 232, 2-(5-fluoro-2-(((1S,3R,4S,5R)-4-hydroxy-6,8-dioxabicyclo[3.2.1]octan-3-yl)amino)pyrimidin-4-yl)-3,5-dimethyl-6-(morpholinomethyl)thieno[3,2-c]pyridin-4(5H)-one]",150 to 1000 nM,450 to 3000 nM
"CC(C)c1cc2cc(-c3nc(N[C@@H]4C[C@H]5CO[C@H](O5)[C@H]4O)ncc3Cl)ccc2c(=O)n1C [Compound 237, 6-(5-chloro-2-(((1S,3R,4S,5R)-4-hydroxy-6,8-dioxabicyclo[3.2.1]octan-3-yl)amino)pyrimidin-4-yl)-3-isopropyl-2-methylisoquinolin-1(2H)-one]",40 to 150 nM,450 to 3000 nM
"CC(C)n1c(C(C)(C)O)nc2c(F)cc(-c3nc(N[C@@H]4C[C@@H]5CO[C@@H](O5)[C@H]4O)ncc3Cl)cc21 [Compound 137, (1R,3R,4S,5S)-3-((5-chloro-4-(4-fluoro-2-(2-hydroxypropan-2-yl)-1-isopropyl-1H-benzo[d]imidazol-6-yl)pyrimidin-2-yl)amino)-6,8-dioxabicyclo[3.2.1]octan-4-ol]",150 to 1000 nM,> 3000 nM

# — patent US20250084095A1, “Aminopyrimidine Derivatives as Cyclin-Dependent Kinase Inhibitors” (Accutar Biotechnology Inc., priority 2023, published 2025)
